Where two headings read alike, the source gives them in different places.
Columns and labels:
Assay type in all cases: biochemical
MARK3 = MARK3 (Homo sapiens, UniProt P27448); assay: Kinase screen: MARK3 assay
Protocol: (§1) Generally, the same procedure was used for all assays. Since the total assay volume was 25.5 microliters, 0.5 microliters of inhibitors at 51× assay concentration were added to the plates before any other addition.
(§2) The basic procedure was to add 0.5 microliters inhibitor/control in DMSO to plate. Fifteen microliters of enzyme/substrate/buffer mix were added and incubated for 5 min. Ten microliters MgATP at the relevant concentration were added and incubated for 30 min. The assay was stopped by adding 5 microliters of 3% orthophosphoric acid. The assay was transferred to a p81 filter plate and read in a scintillation counter of 30 sec/well. Note that this assay procedure was not followed for MKK1, which instead involved a two-step assay, and PKC alpha, which required the addition of lipid vesicles.
MARK3 assay: MARK3 (5-20 mU diluted in 50 mM Tris pH 7.5, 0.1 mM EGTA, 0.1% b-mercaptoethanol, 1 mg/ml BSA) was assayed against CHKtide substrate ([…]) (SEQ ID NO: 12) in a final volume of 25.5 μl containing 50 mM Tris pH 7.5, 0.05% b-mercaptoethanol, 300 μM substrate peptide, 10 mM magnesium acetate and 0.005 mM [33P-g-ATP] (50-1000 cpm/pmole) and incubated for 30 min at room temperature. Assays were stopped by addition of 5 μl of 0.5 M (3%) orthophosphoric acid and then harvested onto P81 Unifilter plates with a wash buffer of 50 mM orthophosphoric acid.

IKKβ = target: T1, IKKβ (Homo sapiens, UniProt O14920); assay: Kinase screen: IKKb assay
T1 sequence (O14920 1-756): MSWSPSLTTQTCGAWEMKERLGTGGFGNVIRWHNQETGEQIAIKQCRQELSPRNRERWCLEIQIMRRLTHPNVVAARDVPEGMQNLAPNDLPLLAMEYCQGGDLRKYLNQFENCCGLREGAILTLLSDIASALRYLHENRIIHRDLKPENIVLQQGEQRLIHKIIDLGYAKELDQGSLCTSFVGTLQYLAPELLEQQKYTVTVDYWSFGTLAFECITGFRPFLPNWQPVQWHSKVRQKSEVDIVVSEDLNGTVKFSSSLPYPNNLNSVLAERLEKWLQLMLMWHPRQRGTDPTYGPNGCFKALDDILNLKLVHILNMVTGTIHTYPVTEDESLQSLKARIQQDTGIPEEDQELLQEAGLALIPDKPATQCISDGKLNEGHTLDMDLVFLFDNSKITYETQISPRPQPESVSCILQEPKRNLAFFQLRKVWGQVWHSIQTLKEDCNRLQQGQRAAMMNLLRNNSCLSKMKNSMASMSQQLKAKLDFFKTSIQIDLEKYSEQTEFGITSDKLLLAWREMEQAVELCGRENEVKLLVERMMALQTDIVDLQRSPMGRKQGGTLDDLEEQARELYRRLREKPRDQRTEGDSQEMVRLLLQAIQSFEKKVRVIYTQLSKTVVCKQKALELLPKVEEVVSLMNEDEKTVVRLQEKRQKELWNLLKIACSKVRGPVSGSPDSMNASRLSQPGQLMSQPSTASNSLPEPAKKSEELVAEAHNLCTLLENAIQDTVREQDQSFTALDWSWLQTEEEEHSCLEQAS
Protocol: as §1, §2
IKKb assay: 5-20 mU of IKKb (diluted in 50 mM Tris (pH 7.5), 0.1 mM EGTA, 1 mg/ml BSA, 0.1%, b-Mercaptoethanol) was assayed against substrate peptide ([…]) (SEQ ID NO: 20) in a final volume of 25.5 μl containing 50 mM Tris (pH 7.5), 0.1 mM EGTA, 0.1%, b-Mercaptoethanol, 300 μM substrate peptide, 10 mM magnesium acetate and 0.005 mM [33P-g-ATP] (500-1000 cpm/pmole) and incubated for 30 mins at room temperature. Assays were stopped by addition of 5 µl of 0.5M (3%) orthophosphoric acid. Assays were harvested onto P81 Unifilter plates using a wash buffer of 50 mM orthophosphoric acid.

CSK = CSK (Homo sapiens, UniProt P41240); assay: Kinase screen: CSK assay
Chain of CSK (P41240 whole entry, species assumed): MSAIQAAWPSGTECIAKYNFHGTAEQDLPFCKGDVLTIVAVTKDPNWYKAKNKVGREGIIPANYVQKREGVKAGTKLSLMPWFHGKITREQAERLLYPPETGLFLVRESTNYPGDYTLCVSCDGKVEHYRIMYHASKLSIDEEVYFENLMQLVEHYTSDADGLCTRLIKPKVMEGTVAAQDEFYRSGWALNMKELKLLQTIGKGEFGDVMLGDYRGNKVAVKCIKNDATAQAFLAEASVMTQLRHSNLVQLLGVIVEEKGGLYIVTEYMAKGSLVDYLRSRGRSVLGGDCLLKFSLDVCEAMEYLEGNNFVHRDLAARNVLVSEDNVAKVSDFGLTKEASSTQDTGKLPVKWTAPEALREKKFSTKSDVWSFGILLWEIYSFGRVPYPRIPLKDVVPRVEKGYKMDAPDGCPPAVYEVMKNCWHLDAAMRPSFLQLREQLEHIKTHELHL
Protocol: as §1, §2
(500-1000 cpm/pmole) and incubated for 30 min at room temperature Assays were stopped by addition of 5 μl of 0.5 M (3%) orthophosphoric acid and then harvested onto P81 Unifilter plates with a wash buffer of 50 mM orthophosphoric acid.

CDK9/cyclin T complex = target: T2, CDK9/cyclin T complex (Homo sapiens, UniProt P50750); assay: CDK9/cyclin T kinase assay (as for CDK7); conditions: for remaining activity at 0.1 µM: 100 nM, mean of three (standard deviation), read-out: CDK9 % remaining kinase activity after incubation with 100 nM of compound; for IC50: Table 7, mean of three experiments, read-out: CDK9 kinase inhibition in vitro (IC50)
T2 construct: purchased Proqinase GmbH, Germany
T2 sequence (P50750 whole entry): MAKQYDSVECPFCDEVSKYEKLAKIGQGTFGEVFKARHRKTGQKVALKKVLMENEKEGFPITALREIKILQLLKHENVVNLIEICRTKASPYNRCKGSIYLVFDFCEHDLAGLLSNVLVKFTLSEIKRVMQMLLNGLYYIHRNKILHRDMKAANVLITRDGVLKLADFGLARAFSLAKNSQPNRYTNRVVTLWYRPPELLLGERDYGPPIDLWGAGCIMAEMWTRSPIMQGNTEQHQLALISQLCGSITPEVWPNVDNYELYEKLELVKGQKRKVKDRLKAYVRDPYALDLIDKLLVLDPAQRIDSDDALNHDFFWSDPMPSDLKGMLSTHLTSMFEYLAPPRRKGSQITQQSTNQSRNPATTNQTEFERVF
T2 sequence (O60563 whole entry partner): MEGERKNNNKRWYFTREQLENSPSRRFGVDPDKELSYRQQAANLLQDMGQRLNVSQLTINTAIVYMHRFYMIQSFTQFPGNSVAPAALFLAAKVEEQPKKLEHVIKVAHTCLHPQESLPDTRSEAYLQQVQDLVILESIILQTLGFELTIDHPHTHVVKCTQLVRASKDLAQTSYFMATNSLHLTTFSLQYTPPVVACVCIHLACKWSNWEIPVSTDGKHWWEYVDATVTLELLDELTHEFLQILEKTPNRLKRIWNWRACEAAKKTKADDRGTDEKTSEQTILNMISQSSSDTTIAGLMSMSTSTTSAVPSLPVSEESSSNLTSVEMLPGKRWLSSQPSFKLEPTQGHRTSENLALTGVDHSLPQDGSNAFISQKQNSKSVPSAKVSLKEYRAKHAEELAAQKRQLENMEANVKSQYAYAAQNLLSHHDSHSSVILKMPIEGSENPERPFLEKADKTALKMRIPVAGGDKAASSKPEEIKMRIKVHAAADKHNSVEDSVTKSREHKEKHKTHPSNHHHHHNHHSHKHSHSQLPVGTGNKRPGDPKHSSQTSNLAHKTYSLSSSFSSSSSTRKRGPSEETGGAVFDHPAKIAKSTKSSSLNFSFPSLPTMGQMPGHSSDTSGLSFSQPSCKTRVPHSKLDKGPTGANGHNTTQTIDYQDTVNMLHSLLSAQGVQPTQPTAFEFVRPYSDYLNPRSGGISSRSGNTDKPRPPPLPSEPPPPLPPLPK
Summary of the method: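 Run as the CDK7 protocol with 50 ng CDK2/cyclin A or 100 ng CDK9/cyclin T; compound 30 min at 30 °C, then 2 μM ATP final for 20 min at 30 °C. ATP depletion by luciferase luminescence (PKLight), triplicate, normalised to no-enzyme and enzyme controls.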

[1] = 10 micromolar compound, read-out: mean activity remaining (as a percentage of the original activity), MARK 3
[2] = 10 micromolar compound, read-out: mean activity remaining (as a percentage of the original activity), IKKb
[3] = 10 micromolar compound, read-out: mean activity remaining (as a percentage of the original activity), CSK

Chain of MARK3 (P27448 whole entry, species assumed): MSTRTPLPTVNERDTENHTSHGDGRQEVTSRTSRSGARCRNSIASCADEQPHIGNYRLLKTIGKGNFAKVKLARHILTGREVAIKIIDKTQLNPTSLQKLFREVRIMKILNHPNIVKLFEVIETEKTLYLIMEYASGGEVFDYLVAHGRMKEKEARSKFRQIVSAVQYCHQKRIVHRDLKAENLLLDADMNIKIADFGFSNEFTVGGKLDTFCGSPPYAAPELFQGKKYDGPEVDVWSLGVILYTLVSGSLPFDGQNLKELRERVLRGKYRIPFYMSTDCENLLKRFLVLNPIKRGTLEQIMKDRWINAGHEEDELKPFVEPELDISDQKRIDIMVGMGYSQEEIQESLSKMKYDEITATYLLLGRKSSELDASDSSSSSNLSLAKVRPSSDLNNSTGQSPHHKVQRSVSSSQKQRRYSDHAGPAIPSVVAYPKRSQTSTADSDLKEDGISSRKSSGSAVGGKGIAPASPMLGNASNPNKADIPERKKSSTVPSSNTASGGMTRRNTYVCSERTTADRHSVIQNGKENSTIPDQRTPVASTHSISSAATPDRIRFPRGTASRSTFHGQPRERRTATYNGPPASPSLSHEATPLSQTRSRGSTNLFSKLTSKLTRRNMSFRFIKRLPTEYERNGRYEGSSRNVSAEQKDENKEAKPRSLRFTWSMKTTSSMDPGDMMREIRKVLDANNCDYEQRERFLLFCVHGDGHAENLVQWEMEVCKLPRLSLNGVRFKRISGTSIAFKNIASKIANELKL

CC(C)c1cnn2c(NCc3ccccc3)cc(NCCCCCCCN)nc12 [BS-181]
remaining activity at 10 µM (MARK3; MARK3, 10 μM, read-out: Mean Remaining Enzyme Activity (%)): 104% | remaining activity at 10 µM (IKKβ; IKKβ, 10 μM, read-out: Mean Remaining Enzyme Activity (%)): 96% | remaining activity at 10 µM (CSK; CSK, 10 μM, read-out: Mean Remaining Enzyme Activity (%)): 89%

C=C[C@H](CO)Nc1cc(NCc2ccccc2)n2ncc(C(C)C)c2n1 [ICEC0065]
remaining activity at 0.1 µM (CDK9/cyclin T complex): 100% | IC50 (CDK9/cyclin T complex): > 1 µM | remaining activity at 10 µM (MARK3; [1]): 93% | remaining activity at 10 µM (IKKβ; [2]): 81% | remaining activity at 10 µM (CSK; [3]): 77%

CC[C@H](CO)Nc1cc(NCc2ccccc2)n2ncc(C(C)C)c2n1 [ICEC0067]
remaining activity at 0.1 µM (CDK9/cyclin T complex): 85% | IC50 (CDK9/cyclin T complex): 0.1 µM | remaining activity at 10 µM (MARK3; [1]): 89% | remaining activity at 10 µM (IKKβ; [2]): 84% | remaining activity at 10 µM (CSK; [3]): 77%

CC(C)c1cnn2c(NCc3ccccc3)cc(N[C@@H](CO)[C@H](O)CO)nc12 [ICEC0318, (3S)-3-(7-(Benzylamino)-3-isopropylpyrazolo[1,5-a]pyrimidin-5-ylamino)butane-1,2,4-triol]
remaining activity at 0.1 µM (CDK9/cyclin T complex): 56% | remaining activity at 10 µM (MARK3; [1]): 82% | remaining activity at 10 µM (IKKβ; [2]): 80% | remaining activity at 10 µM (CSK; [3]): 77%

CC(C)c1cnn2c(NCc3ccccc3F)cc(NCCCCCN)nc12 [ICEC-0232]
mean activity remaining (as a percentage of the original activity), MARK 3 (MARK3; 10 micromolar compound): 96% | mean activity remaining (as a percentage of the original activity), IKKb (IKKβ; 10 micromolar compound): 84% | mean activity remaining (as a percentage of the original activity), CSK (CSK; 10 micromolar compound): 78%

Reference: patent publication US8067424B2, “Selective inhibitors for cyclin-dependent kinases” (Emory University, priority 2007, dated 2011)
